Measurements published in PubChem BioAssay (NCI).
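48-hour exposure; five concentrations; linearly interpolated endpoints. Definition used: TGI = concentration required for complete inhibition of growth.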

Experiments:
Test in all cases: NCI-60 cell line screen, 48 h
IGROV1 ovarian = system: IGROV1 ovarian
PC-3 prostate = system: PC-3 prostate
HCT-15 colon = system: HCT-15 colon
SNB-75 CNS = system: SNB-75 CNS
OVCAR-4 ovarian = system: OVCAR-4 ovarian
NCI-H460 lung = system: NCI-H460 lung
HS 578T breast = system: HS 578T breast
MOLT-4 leukemia = system: MOLT-4 leukemia
RXF 393 renal = system: RXF 393 renal
HCT-116 colon = system: HCT-116 colon
NCI-H23 lung = system: NCI-H23 lung
SK-MEL-5 melanoma = system: SK-MEL-5 melanoma
MDA-N = system: MDA-N
EKVX NSCLC = system: EKVX NSCLC
SF-268 CNS = system: SF-268 CNS
U251 CNS = system: U251 CNS
DU-145 prostate = system: DU-145 prostate
MCF7 breast = system: MCF7 breast
K-562 leukemia = system: K-562 leukemia
SR leukemia = system: SR leukemia
T-47D breast = system: T-47D breast
NCI/ADR-RES ovarian = system: NCI/ADR-RES ovarian
BT-549 breast = system: BT-549 breast
TK-10 renal = system: TK-10 renal
KM12 colon = system: KM12 colon
HT29 colon = system: HT29 colon
UO-31 renal = system: UO-31 renal
OVCAR-3 ovarian = system: OVCAR-3 ovarian
SW-620 colon = system: SW-620 colon
SNB-19 CNS = system: SNB-19 CNS
CAKI-1 renal = system: CAKI-1 renal
SK-MEL-28 melanoma = system: SK-MEL-28 melanoma
UACC-62 melanoma = system: UACC-62 melanoma
ACHN renal = system: ACHN renal
786-0 renal = system: 786-0 renal
HOP-62 NSCLC = system: HOP-62 NSCLC
OVCAR-8 ovarian = system: OVCAR-8 ovarian
SK-OV-3 ovarian = system: SK-OV-3 ovarian
MALME-3M melanoma = system: MALME-3M melanoma
SN12C renal = system: SN12C renal
NCI-H522 lung = system: NCI-H522 lung
MDA-MB-231 breast = system: MDA-MB-231 breast
OVCAR-5 ovarian = system: OVCAR-5 ovarian
HL-60(TB) leukemia = system: HL-60(TB) leukemia
RPMI-8226 leukemia = system: RPMI-8226 leukemia
CCRF-CEM leukemia = system: CCRF-CEM leukemia
HCC-2998 colon = system: HCC-2998 colon
MDA-MB-435 = system: MDA-MB-435
HOP-92 NSCLC = system: HOP-92 NSCLC
A498 renal = system: A498 renal
A549 NSCLC = system: A549 NSCLC
SF-539 CNS = system: SF-539 CNS
SK-MEL-2 melanoma = system: SK-MEL-2 melanoma
UACC-257 melanoma = system: UACC-257 melanoma
NCI-H226 lung = system: NCI-H226 lung
SF-295 CNS = system: SF-295 CNS
M14 melanoma = system: M14 melanoma
LOX IMVI melanoma = system: LOX IMVI melanoma

COC(=O)[C@@H]1C[C@]2(Br)c3ccccc3N(S(=O)(=O)c3ccccc3)[C@@H]2N1C(=O)OC
TGI (IGROV1 ovarian): > 100 µM | TGI (PC-3 prostate): > 100 µM | TGI (HCT-15 colon): > 100 µM | TGI (SNB-75 CNS): > 100 µM | TGI (OVCAR-4 ovarian): > 100 µM | TGI (NCI-H460 lung): > 100 µM | TGI (HS 578T breast): > 100 µM | TGI (MOLT-4 leukemia): > 100 µM | TGI (RXF 393 renal): 61.8 µM | TGI (HCT-116 colon): > 100 µM | TGI (NCI-H23 lung): > 100 µM | TGI (SK-MEL-5 melanoma): > 100 µM | TGI (MDA-N): > 100 µM | TGI (EKVX NSCLC): > 100 µM | TGI (SF-268 CNS): > 100 µM | TGI (U251 CNS): > 100 µM | TGI (DU-145 prostate): > 100 µM | TGI (MCF7 breast): > 100 µM | TGI (K-562 leukemia): > 100 µM | TGI (SR leukemia): > 100 µM | TGI (T-47D breast): > 100 µM | TGI (NCI/ADR-RES ovarian): > 100 µM | TGI (BT-549 breast): > 100 µM | TGI (TK-10 renal): > 100 µM | TGI (KM12 colon): > 100 µM | TGI (HT29 colon): > 100 µM | TGI (UO-31 renal): > 100 µM | TGI (OVCAR-3 ovarian): > 100 µM | TGI (SW-620 colon): > 100 µM | TGI (SNB-19 CNS): > 100 µM | TGI (CAKI-1 renal): > 100 µM | TGI (SK-MEL-28 melanoma): > 100 µM | TGI (UACC-62 melanoma): > 100 µM | TGI (ACHN renal): > 100 µM | TGI (786-0 renal): > 100 µM | TGI (HOP-62 NSCLC): > 100 µM | TGI (OVCAR-8 ovarian): > 100 µM | TGI (SK-OV-3 ovarian): > 100 µM | TGI (MALME-3M melanoma): > 100 µM | TGI (SN12C renal): > 100 µM | TGI (NCI-H522 lung): > 100 µM | TGI (MDA-MB-231 breast): > 100 µM | TGI (OVCAR-5 ovarian): > 100 µM | TGI (HL-60(TB) leukemia): > 100 µM | TGI (RPMI-8226 leukemia): > 100 µM | TGI (CCRF-CEM leukemia): > 100 µM | TGI (HCC-2998 colon): > 100 µM | TGI (MDA-MB-435): > 100 µM | TGI (HOP-92 NSCLC): > 100 µM | TGI (A498 renal): > 100 µM | TGI (A549 NSCLC): > 100 µM | TGI (SF-539 CNS): > 100 µM | TGI (SK-MEL-2 melanoma): > 100 µM | TGI (UACC-257 melanoma): 14.6 µM | TGI (NCI-H226 lung): > 100 µM

COC(=O)/C=C\C(C#N)(C#N)N=Cc1cccs1
TGI (IGROV1 ovarian): 32 µM | TGI (PC-3 prostate): 26 µM | TGI (HCT-15 colon): 5.69 µM | TGI (SNB-75 CNS): 29.3 µM | TGI (OVCAR-4 ovarian): 17 µM | TGI (NCI-H460 lung): 39.7 µM | TGI (HS 578T breast): 78.3 µM | TGI (MOLT-4 leukemia): > 24.5 µM | TGI (RXF 393 renal): 5.51 µM | TGI (HCT-116 colon): > 50.2 µM | TGI (NCI-H23 lung): 27.3 µM | TGI (SK-MEL-5 melanoma): 11.2 µM | TGI (MDA-N): 49.3 µM | TGI (EKVX NSCLC): 25.2 µM | TGI (SF-295 CNS): 42.3 µM | TGI (M14 melanoma): 15.4 µM | TGI (SF-268 CNS): 32.1 µM | TGI (U251 CNS): > 53.3 µM | TGI (DU-145 prostate): 24.3 µM | TGI (MCF7 breast): 4.06 µM | TGI (K-562 leukemia): > 100 µM | TGI (T-47D breast): 7.51 µM | TGI (NCI/ADR-RES ovarian): 45 µM | TGI (BT-549 breast): 19.9 µM | TGI (TK-10 renal): 3.43 µM | TGI (KM12 colon): 37.8 µM | TGI (HT29 colon): 4.24 µM | TGI (UO-31 renal): 5.99 µM | TGI (OVCAR-3 ovarian): 25.1 µM | TGI (SNB-19 CNS): > 56.5 µM | TGI (CAKI-1 renal): 3.77 µM | TGI (SK-MEL-28 melanoma): 26 µM | TGI (UACC-62 melanoma): 25.4 µM | TGI (ACHN renal): 4.12 µM | TGI (786-0 renal): > 46.3 µM | TGI (HOP-62 NSCLC): 32.6 µM | TGI (OVCAR-8 ovarian): 14.4 µM | TGI (SK-OV-3 ovarian): 42.3 µM | TGI (MALME-3M melanoma): 6.61 µM | TGI (SN12C renal): 38.7 µM | TGI (NCI-H522 lung): 2.24 µM | TGI (MDA-MB-231 breast): 5.74 µM | TGI (OVCAR-5 ovarian): 22.1 µM | TGI (HL-60(TB) leukemia): 4.2 µM | TGI (RPMI-8226 leukemia): 7.36 µM | TGI (CCRF-CEM leukemia): 3.58 µM | TGI (HCC-2998 colon): 33.8 µM | TGI (MDA-MB-435): 18 µM | TGI (HOP-92 NSCLC): 3.75 µM | TGI (LOX IMVI melanoma): 6.68 µM | TGI (A498 renal): 34.3 µM | TGI (A549 NSCLC): > 56 µM | TGI (SK-MEL-2 melanoma): 34.3 µM | TGI (UACC-257 melanoma): 27.6 µM | TGI (NCI-H226 lung): 20.7 µM
